{"source": "paper PMC9312091", "about": "“Mining Amphibian and Insect Transcriptomes for Antimicrobial Peptide Sequences with rAMPage” (Antibiotics, 2022)", "system": "E. coli and/or S. aureus", "test": "Antimicrobial susceptibility testing (MIC and MBC), summary statements", "assay_type": "cell-based", "conditions": "AST in vitro against E. coli ATCC 25922 and S. aureus ATCC 29213", "experimental": "A total of 21 of the 1137 putative AMPs (Table S2) were synthesized (Genscript Biotech, Piscataway, NJ, USA) and tested for their antimicrobial activity against Escherichia coli ATCC 25922 and Staphylococcus aureus ATCC 29213 in a minimum of three independent experiments (see Figure S5 for a full set of experimental results). In these antimicrobial susceptibility tests, AMP activity was assessed using two metrics: minimum inhibitory and bactericidal concentrations (MIC and MBC, respectively). Lower MIC and MBC values are desirable as they indicate that lower AMP concentrations are sufficient for inhibitory or bactericidal activity, respectively. AMP toxicity was measured by HC50 hemolytic concentration values—the concentration required to lyse ≥ 50% of porcine red blood cells. […]\nTwenty-one putative AMP sequences identified using the rAMPage pipeline were validated through a minimum of three AST experiments performed independently on separate days. In these tests, the AMP activity was assessed using two metrics: minimum inhibitory concentration and minimum bactericidal concentration (MIC and MBC, respectively). MIC and MBC values were determined using procedures outlined by the Clinical and Laboratory Standards Institute (CLSI), with the recommended adaptations for the testing of cationic AMPs described previously. […]", "note": "Peptide text beside a SMILES is read from it.", "data": [{"smiles": "CC(C)C[C@H](NC(=O)[C@H](CCCCN)NC(=O)[C@H](CCC(=O)O)NC(=O)[C@H](CC(C)C)NC(=O)[C@H](CCCNC(=N)N)NC(=O)[C@@H](NC(=O)[C@H](Cc1ccc(O)cc1)NC(=O)[C@H](CC(N)=O)NC(=O)[C@H](CCCCN)NC(=O)[C@H](CCCCN)NC(=O)[C@H](CC(N)=O)NC(=O)[C@@H](NC(=O)[C@H](CC(C)C)NC(=O)[C@H](CCCCN)NC(=O)[C@H](CCCCN)NC(=O)[C@@H](NC(=O)[C@H](CO)NC(=O)[C@H](CCCCN)NC(=O)[C@H](CO)NC(=O)[C@H](CC(C)C)NC(=O)[C@H](Cc1c[nH]c2ccccc12)NC(=O)[C@@H](N)CO)C(C)C)C(C)C)[C@@H](C)O)C(=O)N[C@@H](C)C(=O)N[C@@H](CCCCN)C(=O)N[C@@H](CCCCN)C(=O)N[C@@H](CCCCN)C(=O)N[C@@H](CC(C)C)C(=O)N[C@@H](Cc1ccccc1)C(=O)N[C@@H](CC(N)=O)C(=O)N[C@@H](CCC(=O)O)C(=O)O", "note": "[TeRu4] (H-SWLSKSVKKLVNKKNYTRLEKLAKKKLFNE-OH; N-terminus and C-terminus assumed)", "values": [{"measurement": "antimicrobial activity (in words)", "value": "active only against E. coli"}]}]}
